The PolyMetriX glass transition set

| glass transition temperature [°C] | SMILES |
| --- | --- |
| 276.00 | *C(=O)Nc1ccc(Oc2c(C)cc(C(C)(C)c3cc(C)c(Oc4ccc(NC(=O)c5ccc6c(c5)C(=O)N(c5ccc(Oc7ccc(C8(c9ccc(Oc%10ccc(N%11C(=O)c%12ccc(*)cc%12C%11=O)cc%10)cc9)CC9CC8C8CCCC98)cc7)cc5)C6=O)cc4)c(C)c3)cc2C)cc1 (repeat unit) |
| 182.00 | *C(=O)Oc1c(C)cc(C(C)(C)c2cc(C)c(OC(=O)c3ccc4c(c3)C(=O)N(c3ccc(-c5ccc(N6C(=O)c7ccc(*)cc7C6=O)cc5C)c(C)c3)C4=O)c(C)c2)cc1C (repeat unit) |
| 222.00 | *C(=O)Oc1ccc(C2(c3ccc(OC(=O)c4ccc5c(c4)C(=O)N(c4ccc(-c6ccc(N7C(=O)c8ccc(*)cc8C7=O)cc6C)c(C)c4)C5=O)cc3)C3CC4CC(C3)CC2C4)cc1 (repeat unit) |
| 217.00 | *C(=O)Oc1ccc(C2(c3ccc(OC(=O)c4ccc5c(c4)C(=O)N(c4ccc(-c6ccc(N7C(=O)c8ccc(*)cc8C7=O)cc6C)c(C)c4)C5=O)cc3)CCC(C(C)(C)C)CC2)cc1 (repeat unit) |
| 204.00 | *C(=O)Oc1ccc(C2(c3ccc(OC(=O)c4ccc5c(c4)C(=O)N(c4ccc(-c6ccc(N7C(=O)c8ccc(*)cc8C7=O)cc6C)c(C)c4)C5=O)cc3)CCCCCCCCCCC2)cc1 (repeat unit) |
| 236.00 | *C(=O)c1ccc(Oc2ccc(Oc3ccc(C(=O)c4ccc5c(c4)C(=O)N(c4ccc(N6C(=O)c7ccc(*)cc7C6=O)cc4)C5=O)cc3)cc2)cc1 (repeat unit) |
| 281.00 | *C(=O)c1ccc2c(c1)C(=O)N(c1ccc(Cc3cccc(N4C(=O)c5ccc(*)cc5C4=O)c3)cc1)C2=O (repeat unit) |
| 290.00 | *C(=O)c1ccc2c(c1)C(=O)N(c1ccc(Cc3ccccc3N3C(=O)c4ccc(*)cc4C3=O)cc1)C2=O (repeat unit) |
| 61.00 | *OC(COC(=O)c1ccc(-c2cc(CCCCCCCC)c(-c3ccc(C(*)=O)c(F)c3F)cc2CCCCCCCC)c(F)c1F)COc1ccc(/N=N/c2ccc(C#N)cc2)cc1 (repeat unit) |
| 140.00 | *Oc1c(Cl)cc(C(C)(C)c2cc(Cl)c(OC(=O)c3ccc(OCCCCCCCCCCOc4ccc(C(*)=O)cc4)cc3)c(Cl)c2)cc1Cl (repeat unit) |
| 280.20 | *Oc1ccc(S(=O)(=O)c2ccc(Oc3c(C)cc(-c4cc(C)c(*)c(C)c4)cc3C)cc2)cc1 (repeat unit) |
| 262.00 | *Oc1ccc(S(=O)(=O)c2cccc3c(S(=O)(=O)c4ccc(Oc5c(C)cc(-c6cc(C)c(*)c(C)c6)cc5C)cc4)cccc23)cc1 (repeat unit) |
| 230.00 | *c1c(C)cc(C(C)(C)c2cc(C)c(S(*)(=O)=O)c(C)c2)cc1C (repeat unit) |
| 269.00 | *c1cc(C)c(Oc2ccc(S(=O)(=O)c3ccc(Oc4cc(C)c(C5(*)OC(=O)c6ccccc65)cc4C)cc3)cc2)cc1C (repeat unit) |
| 50.00 | *c1cc(CCCCCCOC(=O)COc2ccccc2)c(*)s1 (repeat unit) |
| 67.50 | *c1cc(CCOC(=O)NCCCC)c(*)s1 (repeat unit) |
| 237.00 | *c1cc(OCCCC)cc(N2C(=O)c3ccc(Oc4ccc5c(c4)C(=O)N(*)C5=O)cc3C2=O)c1 (repeat unit) |
| 185.00 | *c1cc(OCCCCCCCC)cc(N2C(=O)c3ccc(Oc4ccc5c(c4)C(=O)N(*)C5=O)cc3C2=O)c1 (repeat unit) |
| 490.00 | *c1cc2c(cc1C)-c1cc(C)c(N3C(=O)c4ccc(-c5ccc6c(c5)C(=O)N(*)C6=O)cc4C3=O)cc1S2(=O)=O (repeat unit) |
| 128.50 | *c1ccc(-c2c(-c3ccc(-c4ccccc4)cc3)cc(-c3ccc(OCCCCCCOc4ccc(-c5cc(-c6ccc(-c7ccccc7)cc6)c(-c6ccc(-n7c(=O)c8cc9c(=O)n(*)c(=O)c9cc8c7=O)cc6)c(-c6ccc(-c7ccccc7)cc6)c5)cc4)cc3)cc2-c2ccc(-c3ccccc3)cc2)cc1 (repeat unit) |
| 395.00 | *c1ccc(-c2cc(-c3ccccc3)c3cc(-c4ccc5nc(*)cc(-c6ccccc6)c5c4)ccc3n2)cc1 (repeat unit) |
| 31.00 | *c1ccc(-c2cc(CCCCCCCC)c(-c3ccc(-c4ccc(-c5sc(-c6ccc([Si](*)(C)C)s6)cc5CCCCCCCC)s4)s3)s2)s1 (repeat unit) |
| -1.00 | *c1ccc(-c2cc(CCCCCCCC)c(-c3ccc(-c4ccc(-c5sc(-c6ccc([Si](*)(CCCC)CCCC)s6)cc5CCCCCCCC)s4)s3)s2)s1 (repeat unit) |
| 79.00 | *c1ccc(-c2cc(CCCCCCOC(=O)COc3ccccc3)c(*)s2)s1 (repeat unit) |
| 300.00 | *c1ccc(-c2ccc(-c3ccc(-c4cc(-c5ccccc5)c5cc(Oc6ccc7nc(*)cc(-c8ccccc8)c7c6)ccc5n4)cc3)cc2)cc1 (repeat unit) |

| glass transition temperature [°C] | SMILES |
| --- | --- |
| 310.00 | *c1ccc(-c2ccc(-c3ccc(-c4ccc(-c5cc(-c6ccccc6)c6cc(Oc7ccc8nc(*)cc(-c9ccccc9)c8c7)ccc6n5)cc4)cc3)cc2)cc1 (repeat unit) |
| 244.00 | *c1ccc(-c2ccc(-c3ccc(-c4ccc(-c5ccc6c(c5)C(=O)N(c5ccc(Oc7ccc(N8C(=O)c9ccc(*)cc9C8=O)cc7)cc5)C6=O)cc4)cc3)cc2)cc1 (repeat unit) |
| 364.00 | *c1ccc(-c2ccc(-c3ccc(-n4c(=O)c5cc6c(=O)n(*)c(=O)c6c(C(F)(F)F)c5c4=O)cc3)cc2)cc1 (repeat unit) |
| 45.00 | *c1ccc(-c2ccc(-c3ccc([Si](*)(C)C)s3)s2)s1 (repeat unit) |
| -5.00 | *c1ccc(-c2ccc(-c3ccc([Si](CCCC)(CCCC)[Si](*)(CCCC)CCCC)s3)s2)s1 (repeat unit) |
| 390.00 | *c1ccc(-c2ccc(-c3cnc4cc(Oc5ccc6nc(*)cnc6c5)ccc4n3)cc2)cc1 (repeat unit) |
| 345.00 | *c1ccc(-c2ccc(-c3nc4ccccc4c(-c4ccc(Oc5ccc(-c6c(-c7ccccc7)c(*)nc7ccccc67)cc5)cc4)c3-c3ccccc3)cc2)cc1 (repeat unit) |
| 304.00 | *c1ccc(-c2ccc(-n3c(=O)c4c(C(F)(F)F)c5c(=O)n(*)c(=O)c5c(C(F)(F)F)c4c3=O)cc2C(F)(F)F)c(C(F)(F)F)c1 (repeat unit) |
| 398.00 | *c1ccc(-c2ccc(-n3c(=O)c4cc5c(=O)n(*)c(=O)c5cc4c3=O)cc2F)c(F)c1 (repeat unit) |
| 85.00 | *c1ccc(-c2ccc(N(*)c3ccc(C)cc3)cc2)cc1 (repeat unit) |
| 262.00 | *c1ccc(-c2ccc(N3C(=O)c4ccc(Oc5c(C)cc(C(C)(C)c6cc(C)c(Oc7ccc8c(c7)C(=O)N(*)C8=O)c(C)c6)cc5C)cc4C3=O)cc2C(F)(F)F)c(C(F)(F)F)c1 (repeat unit) |
| 325.00 | *c1ccc(-c2ccc(N3C(=O)c4ccc(Oc5ccc6c(c5)C(=O)N(*)C6=O)cc4C3=O)cc2C)c(C)c1 (repeat unit) |
| 365.00 | *c1ccc(C(c2ccc(N3C(=O)c4cc(-c5ccc([Si](C)(C)C)cc5)c(-c5cc6c(cc5-c5ccc([Si](C)(C)C)cc5)C(=O)N(*)C6=O)cc4C3=O)cc2)(C(F)(F)F)C(F)(F)F)cc1 (repeat unit) |
| 417.00 | *c1ccc(C2(c3ccc(-c4cc(-c5ccccc5)c5cc(-c6ccc7nc(*)cc(-c8ccccc8)c7c6)ccc5n4)cc3)c3ccccc3C(=O)c3ccccc32)cc1 (repeat unit) |
| 244.00 | *c1ccc(Cc2ccc(N3C(=O)c4ccc(-c5ccc(-c6ccc(-c7ccc(-c8ccc(-c9ccc%10c(c9)C(=O)N(*)C%10=O)cc8)cc7)cc6)cc5)cc4C3=O)cc2)cc1 (repeat unit) |
| 232.00 | *c1ccc(Oc2c(C)cc(C(C)(C)c3cc(C)c(Oc4ccc(N5C(=O)c6ccc(Oc7ccc(C8(c9ccc(Oc%10ccc%11c(c%10)C(=O)N(*)C%11=O)cc9)CCC(c9ccccc9)CC8)cc7)cc6C5=O)cc4)c(C)c3)cc2C)cc1 (repeat unit) |
| 201.00 | *c1ccc(Oc2c(C)cc(C(c3cccnc3)c3cc(C)c(Oc4ccc(N5C(=O)CC(Nc6ccc(Cc7ccc(NC8CC(=O)N(*)C8=O)cc7)cc6)C5=O)cc4)c(C)c3)cc2C)cc1 (repeat unit) |
| 290.00 | *c1ccc(Oc2ccc(-c3ccc(Oc4ccc(N5C(=O)c6cccc(Oc7c(C)cc(-c8cc(C)c(Oc9cccc%10c9C(=O)N(*)C%10=O)c(C)c8)cc7C)c6C5=O)cc4)cc3)cc2)cc1 (repeat unit) |
| 262.00 | *c1ccc(Oc2ccc(C3(c4ccc(Oc5ccc(N6C(=O)c7ccc(Oc8c(C)cc(C(C)(C)c9cc(C)c(Oc%10ccc%11c(c%10)C(=O)N(*)C%11=O)c(C)c9)cc8C)cc7C6=O)cc5)cc4)CC4CC3C3CCCC43)cc2)cc1 (repeat unit) |
| 348.00 | *c1ccc(Oc2ccc(N3C(=O)c4cc(-c5ccc([Si](C)(C)C)cc5)c(-c5cc6c(cc5-c5ccc([Si](C)(C)C)cc5)C(=O)N(*)C6=O)cc4C3=O)cc2)cc1 (repeat unit) |
| 246.00 | *c1ccc2c(c1)C(=O)N(c1cc(OCCCC)cc(N3C(=O)c4ccc(C(*)(C(F)(F)F)C(F)(F)F)cc4C3=O)c1)C2=O (repeat unit) |
| 195.00 | *c1ccc2c(c1)C(=O)N(c1cc(OCCCCCCCC)cc(N3C(=O)c4ccc(C(*)(C(F)(F)F)C(F)(F)F)cc4C3=O)c1)C2=O (repeat unit) |
| 161.00 | *c1ccc2c(c1)C(=O)N(c1cc(OCCCCCCCCCCCCCCCC)cc(N3C(=O)c4ccc(C(*)(C(F)(F)F)C(F)(F)F)cc4C3=O)c1)C2=O (repeat unit) |
| 210.00 | *c1ccc2c(c1)C(=O)N(c1cc(OCCN(CC)c3ccc(/N=N/c4ccc([N+](=O)[O-])cc4)cc3)cc(N3C(=O)c4ccc(C(*)(C(F)(F)F)C(F)(F)F)cc4C3=O)c1)C2=O (repeat unit) |

| SMILES | glass transition temperature [°C] |
| --- | --- |
| *CC(F)(F)/C(F)=C(/*)Cl (repeat unit) | -17.00 |
| *c1cc(C)c(*)s1 (repeat unit) | 114.20 |
| *c1cc(CCOC(=O)C(C)Br)c(*)s1 (repeat unit) | 49.00 |
| *c1cc(CCOCCOC)c(*)[nH]1 (repeat unit) | -43.00 |
